Numbers after ± are expanded uncertainties.
Assay: wn = mass fraction of the nth substance listed
Conditions: 101 kPa, Liquid, Vibrating tube method

- mass density (293.15 K, w1 = 0.02): 1012.4 ± 0.8 kg/m3
- mass density (293.15 K, w1 = 0.04): 1026.7 ± 0.8 kg/m3
- mass density (303.15 K, w1 = 0.02): 1012.4 ± 0.8 kg/m3
- mass density (303.15 K, w1 = 0.04): 1026.7 ± 0.8 kg/m3
- mass density (313.15 K, w1 = 0.02): 1006.1 ± 0.8 kg/m3
SMILES: [Cl-].[Na+] [sodium chloride] + O
